For assay [1], the system named is Myocardial Infarction (left coronary artery ligation). The experiment in a line: In vivo test, myocardial infarction (heart infarct) model. Also on record: species or system C57/BL6 mice. As to the method: 6-week-old C57/BL6 mice were anesthetized with 1% isoflurane in a chamber. The mice were placed in a left supine position on a heating pad (37° C.), and the heart was exposed via thoracotomy at the fourth left intercostal space. The pericardium was then opened, and the left coronary artery was permanently ligated with a 7-0 suture. Ligation was considered successful when the left ventricle became pale. From one week after surgery, the compound L41 or control solvent were injected via tail vein every other day. The mice were then euthanized after 6 weeks of injection, and the hearts were subjected to histology.
2. Injury Region Division
The cardiac tissue regions used for image characterization are described as the whole heart, infarct zone (left ventricle free wall), border zone (left ventricle anterior and posterior walls), or distal zone (interventricular septum).
For histology studies, hearts were collected at the indicated time points. […]
Hearts were sectioned at a thickness of 8 μm, and slides were created with 5 sections per slide. […] Scar size was quantified by examining serial sections from the apex to the ligation site and calculating the average percent fibrotic area of the total area using Image J software based on Masson's trichrome staining.

Assay [2] deals with neonatal rat ventricular myocytes (NRVMs). As to the kind of experiment: Myocyte proliferation assay (EdU) in neonatal rat ventricular myocytes. In kind it is cell-based. As to conditions: for activation at 1 µM / activation at 3 µM / activation at 10 µM: Rattus norvegicus, Ventricular myocyte, growth relative to blank myocyte growth without compound added; for activation at 1 µM: 1 uM compound; for activation at 3 µM: 3 uM compound; for activation at 10 µM: 10 uM compound. The method, then: 1. Isolation of and Culture Neonatal Rat Ventricular Myocytes (NRVMs)
Ventricles from neonatal rats were separated from the atria, cut into small pieces (about 2×2 mm^2) and then dissociated in Ca^2+-free HBSS containing 0.125 mg ml-1 trypsin (Gibco), 10 μg ml-1 DNase II (Sigma) and 0.1 mg ml-1 collagenase type IV (Sigma). The digestion was carried out under constant stirring at 37° C. for 5 min. The supernatant was collected with FBS (Gibco) after each digestion period. After digestion, the collected supernatant was centrifuged at 1000 g for 10 min at room temperature, and then cell pellets were resuspended in DMEM (Gibco) supplemented with 10% FBS and with 100 uM 5-bromo-2′-deoxyuridine (Sigma). The resuspended cells were passed through a cell strainer ([…], BD Falcon) and seeded onto 100-mm plastic dishes for 2 h at 37° C. in a 5% CO2 to remove fibroblasts, the supernatant was then collected and plated onto 1% gelatin (Sigma)-coated dishes. 24 h after the seeding, the medium was changed to DMEM (Gibco) containing 2% FBS (Gibco), 1% insulin-transferrin-selenium (ITS; Gibco), 1% Penicillin-Streptomycin (Gibco). After 24 hours of low serum culture, remove the medium with DMEM (Gibco) containing 6% FBS (Gibco), 1% insulin-transferrin-selenium (ITS; Gibco), 1% Penicillin-Streptomycin (Gibco), different concentrations of compounds (the compounds were pre-diluted in the medium and the drug concentration was 10 uM, 3 uM, 1 uM, fully mixed). After 36 h add Edu substrate (Invitrogen) according to the manufacturer's guidelines, and then after 12 h cell can be used.
2.1. Immobilization: Remove the medium and fix the cells with […] in 200 ul (whichever is covered) for 15 min and wash the cells twice with 500 ul of PBS for 5 min each time.
2.2. Broken membrane: Add 200 ul of 0.3% Triton-X 100 (diluted in PBS) to each well, incubate for 10-15 min at room temperature (the time should not be too long), and wash the cells twice with 500 ul of PBS for 5 min each time.
2.3. Blocking: Add 200 ul of 10% normal goat serum (diluted with 0.1% PBST) to each well, incubate for 1 h at room temperature, and wash twice with 500 ul of 0.1% PBST for 5 min each time.
2.4. Primary antibody: dilute the primary antibody (abcam, ab8295) to blocking solution at a ratio of 1:200, add 100 ul per well, incubate for 1 h at room temperature (may be slightly longer than 2-3 h), wash the cells twice with 500 ul 0.1% PBST for 5 min each time.
2.5. Secondary antibody: Dilute the fluorescently labeled secondary antibody (abcam, ab150117) into blocking solution at a ratio of 1:200, add 100 ul per well, incubate for 1 h at room temperature (the time should not be too long), wash the cells twice with 0.1% PBST for 5 min each time, pay attention to the whole process. Protected from light.
2.6. Edu staining (Invitrogen C10338)
2.6.1 Prepare Click-iT® reaction cocktail according to Table 3. It was important to add the ingredients in the order listed in the table; otherwise, the reaction would not proceed optimally. Use the Click-iT® reaction cocktail within 15 minutes of preparation.
2.6.2 Add 0.1 mL of Click-iT® reaction cocktail to each well containing a coverslip. Rock the plate briefly to ensure that the reaction cocktail is distributed evenly over the coverslip.
2.6.3 Incubate the plate for 30 minutes at room temperature, protected from light.
2.6.4 Remove the reaction cocktail, then wash the cells twice with 0.1% PBST for 5 min each time.
2.7. DAPI staining: DAPI stain was diluted to PBS at a ratio of 1:1000, 100 ul per well, incubated for 30 min at room temperature, and the cells were washed twice with PBS for 5 min each.
We used Molecular Devices' Image Xpress Micro Confocal for high-throughput photo and data analysis.

The target in another assay is T1, human GSK3 beta (Homo sapiens, UniProt P49841).
T1 construct: Recombinant full-length human GSK3 beta (expressed in Sf9 insect cells with an N-terminal His tag); His tag (N); purchased SignalChem G09-10H; host or cells: Sf9 insect cells
T1 sequence (P49841 whole entry): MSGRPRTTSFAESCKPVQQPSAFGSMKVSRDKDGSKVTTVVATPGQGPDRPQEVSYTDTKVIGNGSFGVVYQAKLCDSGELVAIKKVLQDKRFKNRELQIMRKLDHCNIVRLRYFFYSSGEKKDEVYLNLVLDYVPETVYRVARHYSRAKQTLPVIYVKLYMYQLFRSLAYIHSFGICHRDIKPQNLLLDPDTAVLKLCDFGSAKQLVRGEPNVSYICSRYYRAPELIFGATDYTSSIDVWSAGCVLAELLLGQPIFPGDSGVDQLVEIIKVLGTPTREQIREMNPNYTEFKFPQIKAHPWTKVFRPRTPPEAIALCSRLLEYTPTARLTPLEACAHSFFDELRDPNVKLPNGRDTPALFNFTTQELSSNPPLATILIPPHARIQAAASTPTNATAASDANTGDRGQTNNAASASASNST
As to the kind of experiment: GSK3 beta enzyme assay (ADP-Glo). In kind it is biochemical. The method, then: 1. GSK3 Beta Enzyme Assay
The ability of compounds to inhibit human GSK3 beta kinase activities was determined using a commercially available ADP-Glo™ Kinase Assay kit (Promega, Cat #V9102) according to the manufacturer's protocol. The ADP-Glo™ Kinase Assay is a luminescent ADP detection assay that provides a universal, homogeneous, high-throughput screening method to measure kinase activity by quantifying the amount of ADP produced during a kinase reaction. The ADP-Glo™ Kinase Assay can be used to monitor the activity of virtually any ADP-generating enzymes (e.g., kinases or ATPases).
Recombinant full-length human GSK3 beta (expressed in Sf9 insect cells with an N-terminal His tag) was purchased from SignalChem (SignalChem, Cat #G09-10H). The GSK3 substrate peptide (sequence: […](pS)EDEEE) was purchased from SignalChem (SignalChem, Cat #G50-58). This assay, run in a 384-well plate format, is a generic method for measuring kinase activities using an ADP-Glo Kinase Assay Kit. The basic assay procedure involves two steps: (1) Enzymatic step: inhibitors are incubated with the kinase and then ATP (included in the ADP-Glo Kinase Assay Kit) and the GSK3 substrate peptide are added to start the enzymatic reaction; (2) Detection step: after the kinase reaction, first ADP-Glo™ Reagent is added to terminate the kinase reaction and deplete the remaining ATP. Second, the Kinase Detection Reagent is added to simultaneously convert ADP to ATP and allow the newly synthesized ATP to be measured using a luciferase/luciferin reaction. The light generated is measured using a luminometer.
Briefly, GSK3 beta (4 nM) in the enzymatic buffer solutions (40 mM Tris, 7.5, 20 mM MgCl2, 0.1 mg/ml BSA, 50 μM DTT) were mixed with various concentrations of inhibitors (dissolved in 100% DMSO). These solutions were incubated for 30 minutes at 25° C., and subsequently a mixture of substrate peptide and ATP was added with the final peptide and ATP concentrations at 13 μM and 25 μM, respectively. The final reaction mixture of enzyme-substrate-ATP-compound was incubated for 60 minutes at 25° C.
Afterwards ADP-Glo™ Reagent was added and the mixture was incubated at 25° C. for 60 minutes. Then Kinase Detection Reagent was added and the final mixture was incubated at 25° C. for 60 minutes. The luminescence signal of the final solution was measured on an Envision instrument (PerkinElmer). The percent (%) inhibition at each concentration of a compound is calculated relative to the luminescence signal in the Max and Min control wells contained within each assay plate. […] The concentrations and percent inhibition values for a test compound are plotted and the concentration of the compound required to achieve 50% inhibition (IC50) is determined with a four-parameter logistic dose response equation.
On the technique in general: In ADP-Glo the light output rises with the ADP produced.

The values below come from patent US12594261B2, “Use of heterocyclic derivatives with cardiomyocyte proliferation activity for treatment of heart diseases” (SHANGHAI EAST HOSPITAL (EAST HOSPITAL, TONGJI UNIVERSITY …, priority 2019, dated 2026).

SMILES strings stand for the structures. “Also recorded” adds a separate entry of the source. Like-named read-outs stand apart in the source and are kept apart here.

In the case of `O=C1NC(Nc2ccccc2)=N/C1=C\c1ccc2c(c1)OCO2` [Example L41, (Z)-5-(benzo[d][1,3]dioxol-5-ylmethylene)-2-(phenylamino)-3,5-dihydro-4H-imidazol-4-one], the “cardiomyocyte proliferation in the heart infarct model” value in assay [1] (mouse, in vivo) is on record as “superior cardiomyocyte proliferation activity”. Further, the “infarct size in the heart infarct model” value in assay [1] (tail vein injection every other day from one week after surgery, 6 weeks, FIG. 6 and 7) is “reduction in infarct size”. In assay [2], the activation at 1 µM is below 10%, the activation at 3 µM was below 10% and the activation at 10 µM was below 10%. The “myocyte growth / proliferation (EDU proliferation index), in words” value in assay [2] (neonatal rat cardiomyocytes, FIGS. 3-5) is given as “potent agonist for promoting myocyte growth or proliferation; also recorded: promotes myocyte growth; also recorded: promotes proliferation of neonatal rat cardiomyocytes; also recorded: potent activity”.
A word on the IC50: it is the concentration needed to halve the response being measured. In assay [2], `CN1C(=O)/C(=C/c2ccc3c(c2)OCO3)N=C1N(C)c1ccccc1` [TJU-B116, (Z)-5-(benzo[d][1,3]dioxol-5-ylmethylene)-3-methyl-2-(methyl(phenyl)amino)-3,5-dihydro-4H-imidazol-4-one] yielded an activation at 1 µM below 10%, an activation at 3 µM below 10% and an activation at 10 µM below 10%. The IC50 on human GSK3 beta (read-out: GSK3b IC50) is above 10 µM.
`CN(C1=N/C(=C\c2ccc3c(c2)OCO3)C(=O)N1)c1ccccc1` [TJU-B115, (Z)-5-(benzo[d][1,3]dioxol-5-ylmethylene)-2-(methyl(phenyl)amino)-3,5-dihydro-4H-imidazol-4-one]: in assay [2], the activation at 1 µM is below 10%, the activation at 3 µM was above 50% and the activation at 10 µM lay in the range of 10 to 50%. Moreover, the IC50 at human GSK3 beta (read-out: GSK3b IC50) is above 10 µM.
In assay [2], `CCN(C1=N/C(=C\c2ccc3c(c2)OCO3)C(=O)N1)c1ccccc1` [TJU-B182, (Z)-5-(benzo[d][1,3]dioxol-5-ylmethylene)-2-(ethyl(phenyl)amino)-3,5-dihydro-4H-imidazol-4-one] had an activation at 1 µM of 10 to 50%, an activation at 3 µM of 10 to 50% and an activation at 10 µM of 10 to 50%. The IC50 on human GSK3 beta (read-out: GSK3b IC50) was above 10 µM.
Take `CC(=O)N(C1=N/C(=C\c2ccc3c(c2)OCO3)C(=O)N1)c1ccccc1` [TJU-B183, (Z)—N-(4-(benzo[d][1,3]dioxol-5-ylmethylene)-5-oxo-4,5-dihydro-1H-imidazol-2-yl)-N-phenylacetamide]: in assay [2], the activation at 1 µM is below 10%, the activation at 3 µM was 10 to 50% and the activation at 10 µM is above 50%. This molecule displayed a half-maximal inhibitory concentration (IC50) against human GSK3 beta above 10 µM.
In assay [2], `O=C1/C(=C/c2ccc3c(c2)OCO3)N=C(N(Cc2ccccc2)c2ccccc2)N1Cc1ccccc1` [TJU-B076, (Z)-5-(benzo[d][1,3]dioxol-5-ylmethylene)-3-benzyl-2-(benzyl(phenyl)amino)-3,5-dihydro-4H-imidazol-4-one] came in with an activation at 1 µM below 10%, an activation at 3 µM below 10% and an activation at 10 µM above 50%. In addition, the IC50 on human GSK3 beta (read-out: GSK3b IC50) was above 10 µM.
In assay [2], `O=C1NC(Nc2ccccc2)=N/C1=C\c1ccc2c(c1)OC(F)(F)O2` [TJU-B028, (4Z)-4-[(2,2-difluoro-2H-1,3-benzodioxol-5-yl)methylidene]-2-(phenylamino)-4,5-dihydro-1H-imidazol-5-one] returned an activation at 1 µM below 10%, an activation at 3 µM below 10% and an activation at 10 µM of 10 to 50%.
In the case of `O=C1NC(NCCN2CCOCC2)=N/C1=C\c1ccc2c(c1)OC(F)(F)O2` [TJU-B066, (4Z)-4-[(2,2-difluoro-2H-1,3-benzodioxol-5-yl)methylidene]-2-{[2-(morpholin-4-yl)ethyl]amino}-4,5-dihydro-1H-imidazol-5-one], in assay [2], the activation at 1 µM was in the range of 10 to 50%, the activation at 3 µM was below 10% and the activation at 10 µM was below 10%.
In assay [2], `O=C1NC(Nc2ccc3c(c2)OCO3)=N/C1=C\c1ccc2c(c1)OCO2` [TJU-B027, (4Z)-2-[(2H-1,3-benzodioxol-5-yl)amino]-4-[(2H-1,3-benzodioxol-5-yl)methylidene]-4,5-dihydro-1H-imidazol-5-one] came in with an activation at 1 µM below 10%, an activation at 3 µM below 10% and an activation at 10 µM of 10 to 50%.
